Experimental data from patent publication US20240408064A1, “RAS INHIBITORS, COMPOSITIONS AND METHODS OF USE THEREOF” (GENETOLEAD INC., priority 2021, published 2024).

Legend:
[1] = target: wild type HRAS (Homo sapiens (Human), UniProt P01112); experiment: NMR Kd, wild type HRAS; assay type: binding
Procedure: ^1H/^15N Fast-HSQC experiments (Mori et al., Journal of Magnetic Resonance, Series B, Volume 108, Issue 1, July 1995, Pages 94-98) were recorded at a protein concentration of 50-100 μM.
Dissociation constants were obtained by monitoring changes in chemical shifts as a function of ligand concentration. The changes in chemical shifts (d) were calculated according to the following equation (Williamson, Progress in Nuclear Magnetic Resonance Spectroscopy, Volume 73, August 2013, Pages 1-16): d=√(1/2[δ_H^2+[…]]), Where δ are the changes in chemical shift in ppm for ^1H and ^15N and the correction factor (α) was set at 0.15.
^1H 1D protein-observed experiments were recorded with 15-50 μM protein. The standard Bruker 1D ^1H sequence with excitation sculpting (zgesgp) was employed. A relaxation delay of 1 s was employed in order to use 256 scans while still keeping experimental time fairly short. Changes in protein chemical shift or peak intensity in the methyl region were monitored against compound concentration.
The activity of compounds of the invention regarding wild type HRAS was measured in the same as in Example 80. The results obtained with the compounds in the various assays described above are depicted in Table 2.

[2] = target: HRas^G12V (Homo sapiens (Human), UniProt P01112, G12V); experiment: Dissociation constant by ITC; assay type: binding
Procedure: ITC experiments were performed using a Nano ITC isothermal titration calorimeter from TA Instruments. Experiments were performed in reverse-mode by titrating 50 μL of protein solution at a concentration of 300-600 μM into 350 μL of ligand solution at concentrations between 10-50 μM. Stir rate was 200-250 rpm with 16-25 injections, each at 2-3 μL with 150 seconds between each injection. Data fitting was performed using Nano ITCRun software.

Chain of wild type HRAS (P01112 whole entry): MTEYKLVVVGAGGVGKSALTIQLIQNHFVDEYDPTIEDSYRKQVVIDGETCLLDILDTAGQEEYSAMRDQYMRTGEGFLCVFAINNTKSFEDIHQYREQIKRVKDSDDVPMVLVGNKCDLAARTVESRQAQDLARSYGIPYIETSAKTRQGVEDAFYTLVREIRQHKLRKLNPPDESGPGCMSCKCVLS
Chain of HRas^G12V (P01112 1-166 G12V): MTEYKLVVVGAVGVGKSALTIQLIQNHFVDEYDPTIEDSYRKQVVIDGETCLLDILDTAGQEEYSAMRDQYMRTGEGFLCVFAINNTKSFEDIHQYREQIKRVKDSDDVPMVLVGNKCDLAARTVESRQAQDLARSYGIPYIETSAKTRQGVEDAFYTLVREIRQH

Kd [1] [µM]	Kd [2] [µM]	SMILES
5180		CC(C)N1CCC(NC(=O)Cc2c[nH]c3cc(F)ccc23)CC1 [Compound 10018]
	17 to 159	CN(C)CC(=O)Nc1cccc(NC(=O)Cc2c[nH]c3cc(F)ccc23)c1 [compound 10097]
